Literature values in patent US20050131071A1, “Orodispersible pharmaceutical composition of agomelatine” (priority 2003, published 2005).

Details: humans; oral route in relation to the parenteral route

In the case of `COc1ccc2cccc(CCNC(C)=O)c2c1` [agomelatine, N-[2-(7-methoxy-1-naphthyl)ethyl]acetamide], the “bioavailability by the oral route” value is given as “very low”.
